According to a melting point compilation (Tetko et al.; mined from patent text by program, amines drawn as free bases though some values may be those of a salt):

Structure (SMILES) | melting point [°C]
O=C(O)c1[nH]c2cc(Cl)cc(Cl)c2c1C=C1CC(=O)N(c2ccccc2)C1=O | > 250
COc1ccc(/C=C/c2ccc3cc(C(=O)O)ccc3n2)cc1 | 274 to 277
CCOC(=O)c1oc2cc(O)ccc2c(=O)c1C(N)=O | > 320
COC1=CC(=O)C(OC)=C(CCCCCC2=C(OC)C(=O)C(C)=C(OC)C2=O)C1=O | 48 to 49
O=S(=O)(c1cccs1)N(c1cccc2cc(C3=NCC(CN4CCOCC4)S3)[nH]c12)C(F)F (stereo unspecified) | 185 to 186
Cc1c(Cc2cccnc2)sc2cc(Br)ccc12 | 69 to 70
CC(C)=CC#Cc1cc(C)cc(Oc2cc(C(F)(F)F)nn2C)n1 | 85
CCOCC1OC(n2cnc3c(NC4CCCC4)ncnc32)C(O)C1O (stereo unspecified) | 134 to 136
CC(C)C(=O)OCCn1nc(-c2cc(C(C)(C)C)c(O)c(C(C)(C)C)c2)c2cccnc21 | 94 to 96
Cn1nnnc1SCCCC(=O)c1ccccc1 | 57.5 to 58
Nc1c([N+](=O)[O-])cc([N+](=O)[O-])c2c1CCCC2 | 175 to 176
Cc1cc(C)cc(CCCn2c(=O)[nH]c3cc(Cl)cc(Cl)c3c2=O)c1 | 205 to 208
Cn1cccc1-c1cc(OC(F)F)n(-c2ccc(NC(=O)c3ccncc3F)cc2)n1 | 154 to 155
C[C@@H](CSc1nc2ccccc2cc1-c1ccccc1)NC(=O)OC(C)(C)C | 86 to 87
Cc1ccc(C(=O)CNC(=O)c2ccc(C(F)(F)F)cc2)s1 | 182 to 183
Cc1ccc(S(=O)(=O)OC(c2cccc(C(OS(=O)(=O)c3ccc(C)cc3)(C(F)(F)F)C(F)(F)F)c2)(C(F)(F)F)C(F)(F)F)cc1 | 131
Cc1cc2nc(-c3cc(C(F)(F)F)nn3-c3ccc(S(C)(=O)=O)cc3)sc2cc1F | 193 to 194
Cn1c([N+](=O)[O-])cnc1-c1nc2ccccc2[nH]1 | 257
N=C(N)c1ccc(-c2ccc(-c3ccc(-c4ccc(C(=N)N)cn4)o3)o2)nc1 | > 300
CCCCCCCCCCCCCCCCCCOc1ccc(C(=O)O)c(OCCCOc2ccc(O)cc2)c1 | 97 to 100
O=C(O)Cn1c(=O)n(Cc2ccccc2)c2ccccc21 | 200 to 202
O=[N+]([O-])c1cnc(NCC(O)CO)cn1 (stereo unspecified) | 185 to 187
CC(C)(C)OC(=O)N1CCC(=CC(=O)NCc2ccc(F)c(F)c2)CC1 | 102 to 105
CNC(=O)NN(CC(=O)OC)c1cccc(I)c1 | 150

Structure (SMILES) | melting point [°C]
C#CCCC(=O)N1CCC(=Cc2ccc(C3=NCCO3)cc2)CC1 | 118
O=C(NC(=O)c1cc(F)ccc1Cl)Nc1ccc(OC(F)(F)F)cc1 | 199
COC(=O)c1c(C)c(OC)cc(OC)c1C=O | 164 to 165
CCOC(=O)C(C)Sc1ncnc2c(O)n(C)nc12 (stereo unspecified) | 127 to 131
O=C(O)CCc1cc2nc(C(F)(F)F)ccc2n1S(=O)(=O)c1cccc2ccccc12 | 116 to 117
CCOC(=O)C(C)Cc1ccnc(-c2nc(=O)c3ccccc3s2)c1 (stereo unspecified) | 120 to 121
Cc1nnc(NC(=O)c2sccc2S(=O)(=O)Nc2onc(C)c2Cl)s1 | 192 to 194
NC(=O)CNc1ncccc1NC(=O)c1ccccn1 | 188 to 190
Cc1ccccc1N1CNC(=O)C12CCN(C(=O)c1cc(C(F)(F)F)cc(C(F)(F)F)c1)CC2 | 164 to 168
O=C1NC(=O)C2(N1)C(=O)N(Cc1ccc(Br)cc1F)c1c(Cl)cccc12 (stereo unspecified) | 240 to 241
CCCCCCCCCCCCCCCCCCOc1ccc(OCc2ccccc2)c(C(=O)N(CC(=O)O)CC(=O)O)c1 | 81 to 83
COc1cc(OC)cc(-c2nc[nH]c2-c2ccc(OC)c(O)c2)c1 | 181 to 182
Nc1cccn2c(Cl)cnc12 | 126 to 127
COC(=O)c1ccc(SCc2cccc(Cl)c2)cn1 | 75 to 77
O=C1O[C@@H](Cn2ccnn2)CN1c1ccc(-c2ccc(C3=NOC(C4(O)CCCC4)C3)nc2)c(F)c1 (stereo partly specified) | 225
O=C(c1cc([N+](=O)[O-])cc(C(F)(F)F)c1)N1CCC1 | 91
CCOC(=O)c1nc2sc(C(C)C)cc2c(=O)o1 | 87.5 to 88.5
Fc1ccc2c(C3CCN(CC4=Cc5cc6c(cc54)OCO6)CC3)noc2c1 | 125 to 126
CC(=NN(C)c1ccc(C(F)(F)F)cc1)C(=O)NCc1ccc(Cl)cc1 | 112 to 113
O=[N+]([O-])c1ccc(F)c(-c2ccc(CO)cc2)c1 | 106 to 108
CCCCCCCCCCCCCCOc1ccc(C(=O)Nc2ccccc2)cc1 | 124 to 126
Nc1nc(Oc2ccc(O)cc2)nc2nc(-c3ccco3)nn12 | 292 to 294
NNc1c(Cl)cc(C(F)(F)F)c(F)c1Cl | 50 to 51
CC(C)(O)CC(=O)N[C@H]1CC[C@H](CCN2CCN(c3nccc4c3CCO4)CC2)CC1 | 208

Structure (SMILES) | melting point [°C]
c1ccc(Sc2ccc(-c3ccccc3)s2)cc1 | 72.5 to 74.5
CCOC(=O)c1cccc2nc(CC)n(Cc3ccc(-c4ccccc4C(=O)C(=O)OC)cc3)c12 | 118 to 119
CC1(C2CCCC2)Cc2cc(OCC(=O)NC(=N)N)c(Cl)c(Cl)c2C1=O (stereo unspecified) | 216
COc1ccc(N=C(NC(=O)Nc2ccc(-c3ncn(-c4ccc(C(F)(F)F)cc4)n3)cc2)SCOC(=O)C(C)C)c(C)c1 | 160 to 164
CNS(=O)(=O)OCC(=O)N(c1c(C)ccc2ccccc12)C1CCOC1=O (stereo unspecified) | 190 to 194
COC(=O)c1scc(Cl)c1N | 62 to 64
Nc1ncnc2c1nc(O)n2Cc1ccc(F)cc1 | 270 to 272
CN(CCN1CCOCC1)c1ccc(OCC(=O)N[C@@H](CC(N)=O)C(=O)N[C@@H](Cc2ccccc2)[C@H](O)C(=O)N2CCC[C@H]2C(=O)NC(C)(C)C)cc1 | 85 to 95
Cc1nsc2cc(N)c([N+](=O)[O-])cc12 | 189 to 191
CCCc1c(OCCc2ccc3cc(O)c(O)cc3c2)ccc(C(=O)O)c1O | 216 to 218
COc1cccc(-c2cc3cnc(N)nc3nc2N)c1 | 284 to 286
Cc1ccc(S(=O)(=O)N2[C@@H](c3nnn(C)n3)CC[C@H]2c2ccc(F)cc2)cc1 (racemic) | 150
CCOP(=O)(CCN1CC(O)CNc2c1c(=O)c2=O)OCC (stereo unspecified) | 169 to 171
CCCC1(O)CCC2C3CCC4=CC(=O)CCC4C3CCC21CC (stereo unspecified) | 132 to 134
O=C1c2ccc3c4cccc5cccc(c6ccc(c2c36)C(=O)N1CCO)c54 | > 260
OCc1cccc2c(Cl)c3ccccc3cc12 | 138 to 140
COc1ccc(CC(N)=O)cc1OC | 142 to 144
CC(=O)Oc1ccc(CN/C=C2\C(=O)NC(=O)c3ccccc32)cc1OC(C)=O | 184 to 186
C1=C(c2cccc3[nH]ccc23)CN(CCc2ccccc2)CC1 | 205
COCCCN1CCC(CNC(=O)c2cc(Cl)c(N)nc2OC)CC1 | 103
COCCOCCOCC(=O)Nc1c(I)c(N)c(I)c(C(=O)O)c1I | 177 to 178
Cc1ccc(S(=O)(=O)NC(=O)OCCc2ccc(-n3c(-c4ccccc4)nc4c(C)nc(C)cc43)cc2)cc1 | 194
COc1cccc(OCCO)c1-c1ccc(C[C@H](NC(=O)c2c(Cl)cccc2Cl)C(=O)O)cc1 | 158 to 159
